Data on three compounds can be found in US20220033426A1, “Transition Metal Macrocyclics as MRI Contrast Agents for Molecular Imaging” (YALE UNIVERSITY, priority 2020, published 2022).

Data set [1] can be described thus: Temperature sensitivity of 1H NMR proton chemical shift (BIRDS), variable temperature. It is filed as physicochemical. Particulars: At 11.7 T and a temperature range of 25-42° C. The text has this: (§1) For paramagnetic complexes, the total chemical shift of the nuclear spin (δO) is dependent on the cumulative effects of diamagnetic (δD) and paramagnetic (δP) terms, where δP is typically much larger than δD, which has also a very weak temperature dependence. Thus, the effect of temperature on the chemical shift is dominated by δP. Similarly, protonation of an exchangeable group from the complex can modify its geometry and alter its chemical shifts, thus providing pH sensing capability. Variation of the total shift term, ΔδO, when temperature changes by ΔT and pH changes by ΔpH, can be modeled as
(§2) where CT=(ΔδO/ΔT)pH,[X] is the temperature sensitivity, CpH=(ΔδO/Δ pH)T,[X] is the pH sensitivity, and CX represents the sensitivity to cation X concentration (see Coman, D. et al., “Brain temperature by Biosensor Imaging of Redundant Deviation in Shifts (BIRDS): comparison between TmDOTP5^− and TmDOTMA^−,” NMR in Biomedicine, 2010, 23(3):277-285 for details). pH or temperature sensing with BIRDS depends on CT and CpH in relation to ΔδO (>>10^1 ppm) and is inherently independent of agent concentration and static magnetic field (BO) (Coman, D. et al., “Brain temperature and pH measured by 1H chemical shift imaging of a thulium agent,” NMR in Biomedicine, 2009, 22(2):229-239).
(§3) Since the ^1H NMR chemical shifts of the —NH peaks in the [XDOTA-4AmC]^2− and [XDOTA-4AmP]^6− complexes are temperature and pH-dependent (FIG. 6 and FIG. 7), they can be used for measurements of temperature and pH using BIRDS (Table 1). […] In the [XDOTMA]^2− set of complexes, it was observed that the —CH3 proton resonance has a higher intensity compared to other nonexchangeable proton peaks, like H2 or H3 (FIG. 2). The 3D surface plots in FIGS. 10A-C represent the temperature and pH dependencies of the —CH3 proton resonance of the [XDOTMA]^2− complex.

The nature of data set [2]: pH sensitivity of 1H NMR proton chemical shift (BIRDS), variable pH. Conditions: At 11.7 T and a pH range of 6.5-8.0. The data set is classed as physicochemical.
Description: as §1, §2, §3

As for `O=C(CN1CCN(CC(=O)NCP(=O)([O-])[O-])CCN(CC(=O)NCP(=O)([O-])[O-])CCN(CC(=O)NCP(=O)([O-])[O-])CC1)NCP(=O)([O-])[O-].[Co+2]` [[Co(ii)DOTA-4AmP]^6−], the “Temperature Sensitivity, —NH proton resonance” value (from here on “Temperature Sensitivity”) in data set [1] stood at 0.14 ± 0.01 ppm/° C. For the same compound, the “pH Sensitivity, —NH proton resonance” value in data set [2] was found to be 0.37 ± 0.08 ppm/pH unit.

On to `O=C([O-])CNC(=O)CN1CCN(CC(=O)NCC(=O)[O-])CCN(CC(=O)NCC(=O)[O-])CCN(CC(=O)NCC(=O)[O-])CC1.[Fe+2]` [[Fe(ii)DOTA-4AmC]^2−], for which, in data set [1], the “Temperature Sensitivity” value was found to be 0.16 ± 0.01 ppm/° C. The “pH Sensitivity, —NH proton resonance” value in data set [2] was 0.04 ± 0.02 ppm/pH unit.

For the compound `O=C([O-])CNC(=O)CN1CCN(CC(=O)NCC(=O)[O-])CCN(CC(=O)NCC(=O)[O-])CCN(CC(=O)NCC(=O)[O-])CC1.[Ni+2]` [[Ni(ii)DOTA-4AmC]^2−], in data set [1], the “Temperature Sensitivity” value is 0.14 ± 0.02 ppm/° C. The “pH Sensitivity, —NH proton resonance” value in data set [2] is 1.07 ± 0.12 ppm/pH unit.
